Series [1] has as its system HCT-116. The series is described as follows: Cytotoxicity against human HCT-116 cells assessed as inhibition of cell growth at 10 uM measured after 24 hrs by MTT assay (reference value: 0.17%). It counts as functional. On the technique in general: Formazan colour is commonly taken as a measure of viable cells.
Series [2] in a line: Cytotoxicity against human HEK cells assessed as inhibition of cell growth at 10 uM measured after 24 hrs by MTT assay (reference value: 0.11%). It counts as cell-based.
The subject of series [3] is HepG2. Briefly: Cytotoxicity against human HepG2 cells assessed as inhibition of cell growth at 10 uM measured after 24 hrs by MTT assay (reference value: 0.21%). It counts as functional.
Series [4] deals with PA-1. Briefly: Cytotoxicity against human PA-1 cells assessed as inhibition of cell growth at 10 uM measured after 24 hrs by MTT assay (reference value: 0.19%). Format: functional.
Series [5] can be described thus: Toxicity in 7 days post fertilize zebrafish embryo assessed as morphological abnormalities or atrioventricular blocks measured after 24 hrs by bright field microscopic analysis. Also on record: species or system Danio rerio. Conditions: in vivo, dose 1-100 µM.
Series [6] can be described thus: Hepatotoxicity in 4 days post fertilize zebra fish embryo measured 7 days post fertilization at 1 to 100 uM. Format: toxicity, Danio rerio. Conditions: zebrafish, dose 1-100 µM.
Series [7] can be described thus: Stability of compound assessed as parent compound remaining after 60 mins in rat liver microsomes. Particulars: read-out: Stabilty. Format: ADME, Microsome. (Liver microsomes are a subcellular fraction often used to study metabolism.)
A short description of series [8]: Microsomal stability in rat liver microsomes assessed as half life. It counts as ADME, Microsome.
Series [9] is described as follows: Toxicity in zebra fish embryo measured 5 days post fertilization by measuring teratogenicity at 1 to 100 uM. Also on record: species or system Danio rerio. Particulars: zebrafish, 120 h, dose 1-100 µM, time 5 day.
Series [10] in a line: Toxicity in 7 days post fertilize zebrafish embryo assessed as death at 1 to 100 uM after 24 hrs. Also on record: species or system Danio rerio. Particulars: in vivo, dose 1-100 µM.
Series [11] can be described thus: Microsomal stability in rat liver microsomes assessed as intrinsic clearance. It counts as ADME, Microsome. Particulars: read-out: CLH.
Series [12] can be described thus: Inhibition of Protein kinase A (unknown origin). Further details: species or system Homo sapiens.
For series [13], the system named is HCT-116. Briefly: Cytotoxicity against human HCT-116 cells assessed as inhibition of cell growth measured after 24 hrs by MTT assay. It counts as functional, cell-based. Particulars: HCT-116, 24 h.
Series [14] has as its target T1, RAC-alpha serine/threonine-protein kinase (Homo sapiens, UniProt P31749). The series is described as follows: Binding affinity to Akt1 (unknown origin).
Series [15] concerns PA-1. Briefly: Cytotoxicity against human PA-1 cells assessed as inhibition of cell growth measured after 24 hrs by MTT assay. It counts as functional, cell-based. Conditions: PA-1, 24 h.
The subject of series [16] is PANC-1. Briefly: Inhibition of human Akt in human PANC-1 cells assessed as inhibition of Akt phosphorylation at 50 uM measured after 18 hrs by Western blot assay. It counts as cell-based. For orientation: Immunoblotting shows a protein as a band on a membrane.
Series [17] deals with T1, RAC-alpha serine/threonine-protein kinase.
Description: Inhibition of Akt-1 (unknown origin)
The test system of series [18] is PANC-1. Briefly: Inhibition of human Akt in human PANC-1 cells assessed as cell growth arrest at 50 uM measured after 18 hrs by Western blot assay. Format: cell-based.
The target of series [19] is RAC-beta serine/threonine-protein kinase (Homo sapiens) (UniProt P31751). The series is described as follows: Binding affinity to Akt2 (unknown origin).
Series [20] can be described thus: Toxicity in 7 days post fertilize zebrafish embryo assessed as morphological abnormalities at 1 to 100 uM after 24 hrs. Further details: species or system Danio rerio. Conditions: in vivo, dose 1-100 µM.
For series [21], the system named is PANC-1. Briefly: Cytotoxicity against human PANC-1 cells assessed as decrease in cell viability at 50 uM measured after 18 hrs by MTT assay. Format: functional, cell-based.

The record followed here is ChEMBL document CHEMBL4706498, “Rosuvastatin based novel 3-substituted isocoumarins / 3-alkylidenephthalides: Ultrasound assisted synthesis and identification of new anticancer agents” (Eur J Med Chem, 2020).

Each structure is given as a SMILES string. Active and inactive are the calls of the source.

RAC-beta serine/threonine-protein kinase (Homo sapiens), sequence (P31751 whole entry): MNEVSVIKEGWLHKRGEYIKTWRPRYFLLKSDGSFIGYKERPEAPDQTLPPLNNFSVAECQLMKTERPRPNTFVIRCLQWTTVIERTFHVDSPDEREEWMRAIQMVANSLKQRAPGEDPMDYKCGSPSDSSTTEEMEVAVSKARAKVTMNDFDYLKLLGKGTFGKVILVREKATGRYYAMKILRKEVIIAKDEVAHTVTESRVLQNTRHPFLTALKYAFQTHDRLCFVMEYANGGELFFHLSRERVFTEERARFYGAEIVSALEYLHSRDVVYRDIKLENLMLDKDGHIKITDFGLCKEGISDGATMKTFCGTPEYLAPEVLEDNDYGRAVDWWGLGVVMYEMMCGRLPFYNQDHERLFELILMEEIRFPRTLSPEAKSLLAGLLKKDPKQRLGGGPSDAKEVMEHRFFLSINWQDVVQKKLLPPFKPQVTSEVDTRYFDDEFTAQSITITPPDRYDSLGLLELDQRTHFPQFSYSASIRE
T1 sequence (P31749 whole entry): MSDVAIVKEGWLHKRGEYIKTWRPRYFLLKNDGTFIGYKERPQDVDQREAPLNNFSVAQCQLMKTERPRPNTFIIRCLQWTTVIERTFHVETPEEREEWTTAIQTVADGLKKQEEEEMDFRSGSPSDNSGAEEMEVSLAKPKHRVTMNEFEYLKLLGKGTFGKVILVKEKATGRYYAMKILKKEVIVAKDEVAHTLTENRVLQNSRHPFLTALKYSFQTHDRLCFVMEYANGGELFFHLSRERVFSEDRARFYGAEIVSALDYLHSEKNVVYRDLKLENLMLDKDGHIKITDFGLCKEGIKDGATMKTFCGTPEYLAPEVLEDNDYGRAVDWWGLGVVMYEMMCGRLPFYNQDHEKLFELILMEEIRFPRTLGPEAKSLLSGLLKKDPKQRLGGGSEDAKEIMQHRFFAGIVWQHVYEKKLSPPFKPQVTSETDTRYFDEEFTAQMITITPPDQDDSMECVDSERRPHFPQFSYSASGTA

`CC(C)c1nc(N(C)S(C)(=O)=O)nc(-c2ccc(F)cc2)c1COCc1cc2ccc(Br)cc2c(=O)o1`: the values for the inhibition at 10 µM in series [1], in series [3] and in series [4] were 21.7%, 23.5% and 18.7%, respectively. Moreover, the inhibition at 24 h, 10 µM in series [2] is 2.8%.

On to `CC(C)c1nc(N(C)S(C)(=O)=O)nc(-c2ccc(F)cc2)c1COCc1cc2cc(Cl)ccc2c(=O)o1`, for which the inhibition at 10 µM in [1] was 19.8%; in series [3], 10.9%; in [4], 16.8%. Besides, in series [2], the inhibition at 24 h, 10 µM amounted to 1.3%.

Take `Cc1ccc2c(c1)C(=O)O/C2=C\COCc1c(-c2ccc(F)cc2)nc(N(C)S(C)(=O)=O)nc1C(C)C`: the results for the inhibition at 10 µM in [1], in [3] and in [4] were 24.3%, 29.6% and 22.5%, respectively. Also, the inhibition at 24 h, 10 µM in series [2] amounted to 1.6%.

On to `COc1cccc2c1/C(=C/COCc1c(-c3ccc(F)cc3)nc(N(C)S(C)(=O)=O)nc1C(C)C)OC2=O`, for which the inhibition at 10 µM in series [1] came to 25.4%; in [3] it was 26.5%; in series [4], 24.3%. Also, the inhibition at 24 h, 10 µM in series [2] was 4.1%.

For the compound `CC(C)c1nc(N(C)S(C)(=O)=O)nc(-c2ccc(F)cc2)c1COCc1cc2ccc(Cl)cc2c(=O)o1`, the values for the inhibition at 10 µM in [1], in [3] and in series [4] were 23.4%, 20.6% and 20.9%, respectively. Moreover, in series [2], the inhibition at 24 h, 10 µM worked out at 2.3%.

`COc1ccc2c(c1)/C(=C/COCc1c(-c3ccc(F)cc3)nc(N(C)S(C)(=O)=O)nc1C(C)C)OC2=O`: the inhibition at 10 µM in [1] was found to be 35.1%; in series [3], 38.6%; in series [4], 38.3%. Besides, the inhibition at 24 h, 10 µM in [2] was 3.8%.

Regarding `CC(C)c1nc(N(C)S(C)(=O)=O)nc(-c2ccc(F)cc2)c1COCc1cc2ccc(F)cc2c(=O)o1`, the inhibition at 10 µM in series [1] was found to be 36.9%; in [3] it was 33.2%; in [4] it was 28.9%. Besides, the inhibition at 24 h, 10 µM in [2] is 3.1%.

Regarding `CC(C)c1nc(N(C)S(C)(=O)=O)nc(-c2ccc(F)cc2)c1COC/C=C1\OC(=O)c2ccccc21`, the inhibition at 10 µM in series [1] is 20.2%; in series [3] it was 19.3%; in series [4], 52.3%. Further, the inhibition at 24 h, 10 µM in series [2] was 2.1%.

As for `Cc1ccc2cc(COCc3c(-c4ccc(F)cc4)nc(N(C)S(C)(=O)=O)nc3C(C)C)oc(=O)c2c1`, the inhibition at 10 µM is 26% in [1], 24.1% in series [3] and 28.4% in series [4]. In addition, the inhibition at 24 h, 10 µM in series [2] stood at 3.2%.

Turning to `COc1cc2cc(COCc3c(-c4ccc(F)cc4)nc(N(C)S(C)(=O)=O)nc3C(C)C)oc(=O)c2cc1OC`, the Activity entry in series [5] was “Non-Toxic”; in series [6], “Non-Toxic”; in series [9], “Non-Toxic”; in series [10] it was “Non-Toxic”; in [14], -11.3 kcal/mol; in [19] it was -10.6 kcal/mol. In series [20], the Activity entry was “Non-Toxic”. Also, the results for the inhibition at 10 µM in [1], in [3] and in series [4] were 65.6%, 48.7% and 68.4%, respectively. In addition, the remaining at 1 h in [7] came out at 47.2%. For the same compound, the half-life in series [8] was 1.83 h. For the same compound, the microsomal CLint in [11] amounted to 26.3 µL/min/mg. Moreover, the concentration for half-maximal inhibition (IC50) in series [12] was more than 10 µM; in series [13], 0.00451 µM; in [15] it was 0.00076 µM; in series [17], 4.3 µM. Besides, the inhibition at 24 h, 10 µM in [2] came out at 4.9%. The inhibition result in [16], in [18] and in series [21] was “Active” throughout.

`COc1cccc2c1C(=O)c1c(O)c3c(c(O)c1C2=O)C[C@@](O)(C(=O)CO)C[C@@H]3O[C@H]1C[C@H](N)[C@H](O)[C@H](C)O1` [DOXORUBICIN]: the inhibition at 10 µM in series [1] was determined as 61%; in series [3] it was 57%; in series [4], 81.3%. For the same compound, the Activity in series [14] was -8.8 kcal/mol; in [19], -8.6 kcal/mol.

Turning to `Cc1ccc2c(c1C)/C(=C/COCc1c(-c3ccc(F)cc3)nc(N(C)S(C)(=O)=O)nc1C(C)C)OC2=O`, the inhibition at 10 µM in [1] worked out at 18.9%; in [3], 21.6%; in [4] it was 19.9%. For the same compound, the inhibition at 24 h, 10 µM in [2] came out at 1.9%.

On to `CC(C)c1nc(N(C)S(C)(=O)=O)nc(-c2ccc(F)cc2)c1COC/C=C1\OC(=O)c2cc(Br)ccc21`, for which the inhibition at 10 µM worked out at 13.6% in series [1], 20.4% in series [3] and 21.8% in [4]. Also, the inhibition at 24 h, 10 µM in series [2] was found to be 1.9%.

Regarding `COc1ccc2c(=O)oc(COCc3c(-c4ccc(F)cc4)nc(N(C)S(C)(=O)=O)nc3C(C)C)cc2c1`, the inhibition at 10 µM in series [1] is 41.8%; in [3] it was 39.7%; in series [4] it was 40.1%. Also, the inhibition at 24 h, 10 µM in series [2] stood at 3.4%.

`CC(C)c1nc(N(C)S(C)(=O)=O)nc(-c2ccc(F)cc2)c1COC/C=C1\OC(=O)c2cc(F)ccc21`: the inhibition at 10 µM in [1] stood at 18.3%; in series [3] it was 26.7%; in series [4] it was 18.9%. For the same compound, in [2], the inhibition at 24 h, 10 µM was determined as 3.1%.

`CC(C)c1nc(N(C)S(C)(=O)=O)nc(-c2ccc(F)cc2)c1COC/C=C1\OC(=O)c2ccc(Cl)cc21`: the inhibition at 10 µM in series [1] came out at 29.3%; in series [3], 12.6%; in [4], 19.4%. The inhibition at 24 h, 10 µM in series [2] is 3.3%.

Regarding `CC(C)c1nc(N(C)S(C)(=O)=O)nc(-c2ccc(F)cc2)c1COC/C=C1\OC(=O)c2ccc(F)cc21`, the inhibition at 10 µM was found to be 19.8% in [1], 27.5% in series [3] and 15.1% in [4]. For the same compound, in series [2], the inhibition at 24 h, 10 µM was 1.7%.

For `COc1ccc2c(c1)C(=O)O/C2=C\COCc1c(-c2ccc(F)cc2)nc(N(C)S(C)(=O)=O)nc1C(C)C`, the inhibition at 10 µM in series [1] is 33.5%; in [3], 39.3%; in [4], 46.5%. Moreover, in [2], the inhibition at 24 h, 10 µM came to 3.2%.

In the case of `COc1ccc2cc(COCc3c(-c4ccc(F)cc4)nc(N(C)S(C)(=O)=O)nc3C(C)C)oc(=O)c2c1`, the inhibition at 10 µM in [1] turned out to be 43.2%; in [3] it was 39.1%; in series [4], 38.3%. Moreover, the inhibition at 24 h, 10 µM in [2] stood at 3.7%.

As for `CC(C)c1nc(N(C)S(C)(=O)=O)nc(-c2ccc(F)cc2)c1COC/C=C1\OC(=O)c2cc(Cl)ccc21`, the inhibition at 10 µM in series [1] was 24.7%; in [3] it was 21.3%; in series [4] it was 27%. Also, the inhibition at 24 h, 10 µM in series [2] came out at 2.9%.

On to `COc1cc2c(cc1OC)/C(=C/COCc1c(-c3ccc(F)cc3)nc(N(C)S(C)(=O)=O)nc1C(C)C)OC2=O`, for which the Activity entry is “Non-Toxic” in [5]; “Non-Toxic” in [6]; “Non-Toxic” in series [9]; “Non-Toxic” in series [10]; -10.9 kcal/mol in [14]; -9.9 kcal/mol in [19]. In addition, in series [20], the Activity result was “Non-Toxic”. The inhibition at 10 µM is 53.7% in series [1], 50.1% in series [3] and 69.8% in series [4]. Further, the IC50 is more than 10 µM in [12] and 3.7 µM in series [17]. The inhibition at 24 h, 10 µM in series [2] turned out to be 4.3%. Moreover, the inhibition entry in series [16], in series [18] and in series [21] was “Active” each time.

As to `Cc1cc(Cl)cc2c1/C(=C/COCc1c(-c3ccc(F)cc3)nc(N(C)S(C)(=O)=O)nc1C(C)C)OC2=O`, the inhibition at 10 µM was found to be 16% in series [1], 14.1% in series [3] and 18.4% in series [4]. In addition, in [2], the inhibition at 24 h, 10 µM worked out at 2.2%.

Consider `CC(C)c1nc(N(C)S(C)(=O)=O)nc(-c2ccc(F)cc2)c1COC/C=C1\OC(=O)c2cccc(Cl)c21`, for which the inhibition at 10 µM in series [1] was found to be 25.5%; in series [3], 22.1%; in series [4] it was 26.8%. The inhibition at 24 h, 10 µM in [2] is 3.7%.

Usually inhibition stands for how much of the control response was suppressed. The half-life is the time needed for the level to fall by half in the phase considered. As a reminder, the IC50 is the concentration at which inhibition is half-maximal.
